Measured values reported in ChEMBL document CHEMBL5120932, “Discovery and Optimization of Seven-Membered Lactam-Based Compounds to Phenocopy the Inhibition of the Aurora Kinase B” (ACS Med Chem Lett, 2022).
The source made the active and inactive calls. The rule behind the calls is not given here.

tested on: A549; test: Cytotoxicity against human A549 cells assessed as reduction in cell viability measured after 6 days by MTT assay; format: functional, cell-based; settings: time 6.0 day

Compound	Activity
Cc1csc(-c2nnc(Nc3ccc(Oc4ncccc4-c4ccnc(N)n4)cc3)c3ccccc23)c1	Active
COc1ccc2c(c1)[C@]1(C[C@H]1c1ccc3c(/C=C/c4ccc(CN5C[C@@H](C)O[C@@H](C)C5)cc4)n[nH]c3c1)C(=O)N2	Active
CC[C@@H]1C(=O)N(C)c2cnc(Nc3ccc(C(=O)NC4CCN(C)CC4)cc3OC)nc2N1C1CCCC1	Active
COc1cc(Nc2ncc3c(n2)-c2ccc(Cl)cc2C(c2c(F)cccc2OC)=NC3)ccc1C(=O)O	Active
Cc1cc(Nc2cc(N3CCN(C)CC3)nc(Sc3ccc(NC(=O)C4CC4)cc3)n2)n[nH]1	Active

tested on: MDA-MB-231; test: Cytotoxicity against human MDA-MB-231 cells assessed as reduction in cell viability measured after 6 days by MTT assay; format: functional, cell-based; settings: time 6.0 day

Compound	Activity
Cc1csc(-c2nnc(Nc3ccc(Oc4ncccc4-c4ccnc(N)n4)cc3)c3ccccc23)c1	Active
COc1ccc2c(c1)[C@]1(C[C@H]1c1ccc3c(/C=C/c4ccc(CN5C[C@@H](C)O[C@@H](C)C5)cc4)n[nH]c3c1)C(=O)N2	Active
CC[C@@H]1C(=O)N(C)c2cnc(Nc3ccc(C(=O)NC4CCN(C)CC4)cc3OC)nc2N1C1CCCC1	Active
COc1cc(Nc2ncc3c(n2)-c2ccc(Cl)cc2C(c2c(F)cccc2OC)=NC3)ccc1C(=O)O	Active
Cc1cc(Nc2cc(N3CCN(C)CC3)nc(Sc3ccc(NC(=O)C4CC4)cc3)n2)n[nH]1	Active

target: Aurora kinase B (Homo sapiens) (UniProt Q96GD4); test: Inhibition of AURKB in human RPE cells over expressing H2B-GFP-fused MYC assessed as reduction in phosphorylation at Ser10 residues at 200 nM using histone H3 as substrate measured after 6 hrs by immunofluorescence assay; format: cell-based; settings: not given
Sequence (Q96GD4 whole entry, the tested form may be a part): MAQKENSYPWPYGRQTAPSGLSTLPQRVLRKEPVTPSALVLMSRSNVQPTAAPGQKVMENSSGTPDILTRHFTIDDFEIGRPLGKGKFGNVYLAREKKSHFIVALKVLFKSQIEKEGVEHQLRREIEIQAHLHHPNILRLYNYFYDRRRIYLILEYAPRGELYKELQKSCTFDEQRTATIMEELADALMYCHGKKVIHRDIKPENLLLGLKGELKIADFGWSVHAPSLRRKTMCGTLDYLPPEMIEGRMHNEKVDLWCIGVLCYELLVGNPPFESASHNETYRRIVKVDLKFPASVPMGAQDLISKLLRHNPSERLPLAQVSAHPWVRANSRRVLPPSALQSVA

Compound	inhibition
CCN(CCO)CCCOc1ccc2c(Nc3cc(CC(=O)Nc4cccc(F)c4)[nH]n3)ncnc2c1	Active

tested on: not listed separately; test: Induction of mitotic arrest in human RPE cells over expressing H2B-GFP-fused MYC assessed as polyploidy cells in the interphase cell population at 40 uM measured after 72 hrs by fluorescence microscopy relative to control; format: functional; settings: not given

Compound	Activity
COC(=O)C1=C(O)c2ccccc2NC(=O)C1	50%

tested on: not listed separately; test: Induction of mitotic arrest in human RPE cells over expressing H2B-GFP-fused MYC assessed as minimum effective concentration for polyploidy measured after 24 hrs by fluorescence microscopy; format: functional; settings: read-out: MEC

Compound	minimal effective concentration
COC(=O)C1=C(O)c2ccccc2NC(=O)C1	40 µM

tested on: HCT-116; test: Cytotoxicity against human HCT-116 cells assessed as reduction in cell viability measured after 6 days by MTT assay; format: functional, cell-based; settings: time 6.0 day

Compound	Activity
Cc1csc(-c2nnc(Nc3ccc(Oc4ncccc4-c4ccnc(N)n4)cc3)c3ccccc23)c1	Active
COc1ccc2c(c1)[C@]1(C[C@H]1c1ccc3c(/C=C/c4ccc(CN5C[C@@H](C)O[C@@H](C)C5)cc4)n[nH]c3c1)C(=O)N2	Active
CC[C@@H]1C(=O)N(C)c2cnc(Nc3ccc(C(=O)NC4CCN(C)CC4)cc3OC)nc2N1C1CCCC1	Active
COc1cc(Nc2ncc3c(n2)-c2ccc(Cl)cc2C(c2c(F)cccc2OC)=NC3)ccc1C(=O)O	Active
Cc1cc(Nc2cc(N3CCN(C)CC3)nc(Sc3ccc(NC(=O)C4CC4)cc3)n2)n[nH]1	Active

tested on: NCI-N87; test: Cytotoxicity against human NCI-N87 cells assessed as reduction in cell viability measured after 6 days by MTT assay; format: functional, cell-based; settings: time 6.0 day

Compound	Activity
Cc1csc(-c2nnc(Nc3ccc(Oc4ncccc4-c4ccnc(N)n4)cc3)c3ccccc23)c1	Active
COc1ccc2c(c1)[C@]1(C[C@H]1c1ccc3c(/C=C/c4ccc(CN5C[C@@H](C)O[C@@H](C)C5)cc4)n[nH]c3c1)C(=O)N2	Active
CC[C@@H]1C(=O)N(C)c2cnc(Nc3ccc(C(=O)NC4CCN(C)CC4)cc3OC)nc2N1C1CCCC1	Active
COc1cc(Nc2ncc3c(n2)-c2ccc(Cl)cc2C(c2c(F)cccc2OC)=NC3)ccc1C(=O)O	Active
Cc1cc(Nc2cc(N3CCN(C)CC3)nc(Sc3ccc(NC(=O)C4CC4)cc3)n2)n[nH]1	Active

tested on: NCI-H460; test: Cytotoxicity against human NCI-H460 cells assessed as reduction in cell viability measured after 6 days by MTT assay; format: functional, cell-based; settings: time 6.0 day

Compound	Activity
Cc1csc(-c2nnc(Nc3ccc(Oc4ncccc4-c4ccnc(N)n4)cc3)c3ccccc23)c1	Active
COc1ccc2c(c1)[C@]1(C[C@H]1c1ccc3c(/C=C/c4ccc(CN5C[C@@H](C)O[C@@H](C)C5)cc4)n[nH]c3c1)C(=O)N2	Active
CC[C@@H]1C(=O)N(C)c2cnc(Nc3ccc(C(=O)NC4CCN(C)CC4)cc3OC)nc2N1C1CCCC1	Active
COc1cc(Nc2ncc3c(n2)-c2ccc(Cl)cc2C(c2c(F)cccc2OC)=NC3)ccc1C(=O)O	Active
Cc1cc(Nc2cc(N3CCN(C)CC3)nc(Sc3ccc(NC(=O)C4CC4)cc3)n2)n[nH]1	Active

tested on: NCI-H596; test: Cytotoxicity against human NCI-H596 cells assessed as reduction in cell viability measured after 6 days by MTT assay; format: functional, cell-based; settings: time 6.0 day

Compound	Activity
Cc1csc(-c2nnc(Nc3ccc(Oc4ncccc4-c4ccnc(N)n4)cc3)c3ccccc23)c1	Active
COc1ccc2c(c1)[C@]1(C[C@H]1c1ccc3c(/C=C/c4ccc(CN5C[C@@H](C)O[C@@H](C)C5)cc4)n[nH]c3c1)C(=O)N2	Active
CC[C@@H]1C(=O)N(C)c2cnc(Nc3ccc(C(=O)NC4CCN(C)CC4)cc3OC)nc2N1C1CCCC1	Active
COc1cc(Nc2ncc3c(n2)-c2ccc(Cl)cc2C(c2c(F)cccc2OC)=NC3)ccc1C(=O)O	Active
Cc1cc(Nc2cc(N3CCN(C)CC3)nc(Sc3ccc(NC(=O)C4CC4)cc3)n2)n[nH]1	Active

tested on: DU-145; test: Cytotoxicity against human DU-145 cells assessed as reduction in cell viability measured after 6 days by MTT assay; format: functional, cell-based; settings: time 6.0 day

Compound	Activity
Cc1csc(-c2nnc(Nc3ccc(Oc4ncccc4-c4ccnc(N)n4)cc3)c3ccccc23)c1	Active
COc1ccc2c(c1)[C@]1(C[C@H]1c1ccc3c(/C=C/c4ccc(CN5C[C@@H](C)O[C@@H](C)C5)cc4)n[nH]c3c1)C(=O)N2	Active
CC[C@@H]1C(=O)N(C)c2cnc(Nc3ccc(C(=O)NC4CCN(C)CC4)cc3OC)nc2N1C1CCCC1	Active
COc1cc(Nc2ncc3c(n2)-c2ccc(Cl)cc2C(c2c(F)cccc2OC)=NC3)ccc1C(=O)O	Active
Cc1cc(Nc2cc(N3CCN(C)CC3)nc(Sc3ccc(NC(=O)C4CC4)cc3)n2)n[nH]1	Active

tested on: NCI-H23; test: Cytotoxicity against human NCI-H23 cells assessed as reduction in cell viability measured after 6 days by MTT assay; format: functional, cell-based; settings: time 6.0 day

Compound	Activity
Cc1csc(-c2nnc(Nc3ccc(Oc4ncccc4-c4ccnc(N)n4)cc3)c3ccccc23)c1	Active
COc1ccc2c(c1)[C@]1(C[C@H]1c1ccc3c(/C=C/c4ccc(CN5C[C@@H](C)O[C@@H](C)C5)cc4)n[nH]c3c1)C(=O)N2	Active
CC[C@@H]1C(=O)N(C)c2cnc(Nc3ccc(C(=O)NC4CCN(C)CC4)cc3OC)nc2N1C1CCCC1	Active
COc1cc(Nc2ncc3c(n2)-c2ccc(Cl)cc2C(c2c(F)cccc2OC)=NC3)ccc1C(=O)O	Active
Cc1cc(Nc2cc(N3CCN(C)CC3)nc(Sc3ccc(NC(=O)C4CC4)cc3)n2)n[nH]1	Active

tested on: Calu-6; test: Cytotoxicity against human Calu-6 cells assessed as reduction in cell viability measured after 6 days by MTT assay; format: functional, cell-based; settings: time 6.0 day

Compound	Activity
Cc1csc(-c2nnc(Nc3ccc(Oc4ncccc4-c4ccnc(N)n4)cc3)c3ccccc23)c1	Active
COc1ccc2c(c1)[C@]1(C[C@H]1c1ccc3c(/C=C/c4ccc(CN5C[C@@H](C)O[C@@H](C)C5)cc4)n[nH]c3c1)C(=O)N2	Active
CC[C@@H]1C(=O)N(C)c2cnc(Nc3ccc(C(=O)NC4CCN(C)CC4)cc3OC)nc2N1C1CCCC1	Active
COc1cc(Nc2ncc3c(n2)-c2ccc(Cl)cc2C(c2c(F)cccc2OC)=NC3)ccc1C(=O)O	Active
Cc1cc(Nc2cc(N3CCN(C)CC3)nc(Sc3ccc(NC(=O)C4CC4)cc3)n2)n[nH]1	Active
